Measured values from ChEMBL document CHEMBL1201862, “PubChem BioAssay data set” (2004).
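How tested: cells in 96-well plates exposed to compound for 48 hours at five concentrations. At the GI50, growth is halved.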 Active and inactive are the calls of the source. Cut-off read from the data, not from the text of the source: active = GI50 up to about 1.1 µM and inactive = higher.

Tests used:
Assay in all cases: growth of human tumour cells (NCI), 48 h
[1] = system: UACC-62
[2] = system: MCF7
[3] = system: COLO 205
[4] = system: ACHN
[5] = system: 786-0
[6] = system: NCI/ADR-RES
[7] = system: T47D
[8] = system: HL-60
[9] = system: KM12
[10] = system: Malme-3M
[11] = system: NCI-H460
[12] = system: UO-31
[13] = system: SF-268
[14] = system: SK-MEL-5
[15] = system: MOLT-4
[16] = system: HCT-116
[17] = system: SW-620
[18] = system: SR
[19] = system: U-251
[20] = system: CAKI-1

Measured: GI50

C=CC(C)(C)c1cc([C@@H]2COc3cc(O)ccc3C2=O)c(O)c(OC)c1OC
inactive: [1] 13 µM | [2] 14.8 µM | [3] 22 µM | [4] 16.2 µM | [5] 16 µM | [6] 12.6 µM | [7] 3.24 µM | [8] 6.75 µM | [9] 13.2 µM | [10] 10.8 µM | [11] 17.4 µM | [12] 10.9 µM | [13] 12.6 µM | [14] 10.4 µM | [15] 7.01 µM | [16] 11.8 µM | [17] 31.6 µM | [18] 8.18 µM | [19] 13.5 µM

CCOC(=O)c1nc2ccccc2nc1NCc1ccc(Cl)cc1Cl
inactive: [1] > 100 µM | [2] > 100 µM | [3] > 100 µM | [4] > 100 µM | [5] > 100 µM | [6] > 100 µM | [7] > 100 µM | [9] > 100 µM | [10] > 100 µM | [11] 35 µM | [20] > 100 µM | [12] > 100 µM | [13] > 100 µM | [14] > 100 µM | [15] > 100 µM | [16] > 100 µM | [17] > 100 µM | [18] 60.7 µM | [19] > 100 µM

COC(=O)C1=C(N)C2=C(N)Oc3ccccc3C2CC1=C(C#N)C#N (configuration not stated)
inactive: [1] 18.1 µM | [2] 12.7 µM | [3] 22.5 µM | [4] 24.5 µM | [5] 30.9 µM | [6] 20.2 µM | [7] 25.9 µM | [8] 29.2 µM | [9] 15.7 µM | [10] 21.6 µM | [20] 23.2 µM | [12] 19.2 µM | [13] 29.7 µM | [14] 25.8 µM | [15] 33.4 µM | [16] 23.5 µM | [17] 33.7 µM | [18] 12.6 µM | [19] 35.5 µM

CN1CCN(Cn2nc(COc3ccccc3Cl)n(/N=C/c3ccc(-c4ccc(Cl)cc4Cl)o3)c2=S)CC1
inactive: [2] 19.6 µM | [5] 18.6 µM | [6] 21.7 µM | [7] 19.5 µM | [8] 24.8 µM | [9] 19.7 µM | [11] 22.1 µM | [20] 22.7 µM | [12] 33.2 µM | [13] 54.5 µM | [14] 24.8 µM | [15] 24.5 µM | [16] 18.5 µM | [17] 16.1 µM | [18] 24.3 µM | [19] 19.3 µM

COc1ccc([N+](=O)[O-])cc1[I+]c1cc([N+](=O)[O-])ccc1OC
inactive: [1] 23.2 µM | [2] 31.9 µM | [3] 68.9 µM | [4] 74.3 µM | [5] > 100 µM | [6] > 100 µM | [7] 28.8 µM | [8] 20.7 µM | [9] 22.7 µM | [10] 4.47 µM | [11] 22.5 µM | [20] 38.6 µM | [12] 60.5 µM | [13] 25.1 µM | [14] 12.4 µM | [16] 89.5 µM | [17] 45.3 µM | [18] 12.3 µM | [19] 16.1 µM

CC(C)(C)c1cc2c(O)c(c1)COCc1cc(C(C)(C)C)cc(c1O)COCc1cc(C(C)(C)C)cc(c1O)COC2
inactive: [1] > 100 µM | [2] > 100 µM | [3] > 100 µM | [4] 63.2 µM | [5] 19.1 µM | [6] > 100 µM | [7] > 100 µM | [8] 31.1 µM | [9] 64.6 µM | [11] > 100 µM | [12] 35.5 µM | [14] 99.3 µM | [15] 48 µM | [16] 97.3 µM | [17] > 100 µM | [18] > 100 µM | [19] > 100 µM

O=C1CC(CC(O)C(O)C(O)CO)CC(=O)N1 (configuration not stated)
inactive: [2] > 100 µM | [3] > 100 µM | [4] > 100 µM | [5] > 100 µM | [6] > 100 µM | [7] > 100 µM | [8] > 100 µM | [9] > 100 µM | [10] > 100 µM | [11] > 100 µM | [20] > 100 µM | [12] > 100 µM | [13] > 100 µM | [14] > 100 µM | [15] > 100 µM | [16] > 100 µM | [17] > 100 µM | [18] > 100 µM | [19] > 100 µM

COC1=C(OC)C23CCc4ccc(OC)c(O)c4C2(CCN3)CC1=O (configuration not stated)
inactive: [1] > 100 µM | [2] > 100 µM | [3] > 100 µM | [4] > 100 µM | [5] > 100 µM | [6] > 100 µM | [7] > 100 µM | [8] > 100 µM | [9] > 100 µM | [10] > 100 µM | [11] > 100 µM | [20] > 100 µM | [13] > 100 µM | [14] > 100 µM | [15] > 100 µM | [16] > 100 µM | [17] > 100 µM | [18] > 100 µM | [19] > 100 µM

CC1CCCc2c(CC3CC(=O)NC(=O)C3)nc(N)nc21 (configuration not stated)
inactive: [1] > 100 µM | [2] > 100 µM | [3] > 100 µM | [5] > 100 µM | [6] > 100 µM | [7] > 100 µM | [8] 2.21 µM | [9] > 100 µM | [10] > 100 µM | [20] > 100 µM | [13] > 100 µM | [14] > 100 µM | [15] > 100 µM | [16] > 100 µM | [17] > 100 µM | [18] > 100 µM | [19] > 100 µM

N#CC1=C(N)Nc2nc3ccccc3n2C1c1ccccc1 (configuration not stated)
inactive: [1] 56.6 µM | [2] 97.7 µM | [3] > 100 µM | [4] 23.3 µM | [5] 34 µM | [6] > 100 µM | [7] 20.2 µM | [8] > 100 µM | [9] 53.7 µM | [11] 45.7 µM | [20] 46.8 µM | [12] 64.3 µM | [13] 46.7 µM | [14] 37.6 µM | [15] 49 µM | [16] 29.8 µM | [17] 55.6 µM | [18] 83.6 µM | [19] 42.9 µM

COCCOC(C)C(=O)C(O)S(=O)(=O)O (configuration not stated)
inactive: [1] > 100 µM | [2] > 100 µM | [3] > 100 µM | [4] > 100 µM | [5] > 100 µM | [6] > 100 µM | [7] > 100 µM | [8] > 100 µM | [9] > 100 µM | [10] > 100 µM | [11] > 100 µM | [12] > 100 µM | [13] > 100 µM | [14] > 100 µM | [15] > 100 µM | [16] > 100 µM | [17] > 100 µM | [18] > 100 µM | [19] > 100 µM
